Measured values reported in patent US12281161B2, “Polypeptides and uses thereof” (TRUSTEES OF BOSTON UNIVERSITY, priority 2021, dated 2025).
Where a SMILES comes first, the peptide text is derived from it. [ ]: non-standard residue; d: D form. The star is where a group is joined. Dolaproine = CO[C@@H]([C@@H]1CCCN1)[C@@H](C)C(=O)O; Dil = CC[C@H](C)[C@H](NC)[C@@H](CC(=O)O)OC; X1 = C[C@@H](N*)[C@@H](O)c1ccccc1; NMeV = CN[C@H](C(=O)O)C(C)C

What was measured:
SKBR-3 = assay: in vitro toxicity of αHER2-P3 based ADC; settings: SKBR-3, 72 h, up to 10 μg/ml ADC (equivalent to 100 ng/ml MMAE)
Description: (§6) The toxicity of the new ADC was investigated in vitro in the HER2-positive cell lines: SKBR-3 and A549. We treated the cells with up to 10 μg/ml of ADC (equivalent to 100 ng/ml of MMAE) along with native antibodies and free drug at equivalent concentrations.

BEAS-2B = assay: in vitro cytotoxicity (MTT); assay type: cell-based, human
Description: (§1) We utilized two different incubation methods.
(§2) We then incubated the human cell lines with ADC, and equivalent concentrations of MMAE and native Ab for both 48 hours and 72 hours, the results of which can be seen in FIG. 13A-13E. We expected the results to correlate with the GPR87 expression we observed by flow cytometry. For the normal cell lines, this was the case. As detailed in FIG. 14, the line that was most sensitive to the ADC were the NHLFs, followed by the BEAS-2Bs, and the line with the lowest GPR87 expression, the HUVECs, had the highest IC50 after 72 hours. However, both the NSCLC cell lines had relatively high IC50s given the GPR87 expression status of these lines.
(§3) Standard cytotoxicity assays, like the MTT assays ran here, measure or rather, approximate the cell number at an end point and compare to control untreated cells. Effectively what is measured is a comparison between growth rates. When comparing the efficacy of a drug, particularly a mitotic inhibitor, among different cell lines, division rate differences due to biology, media additives, or seeding density can have a dramatic effect on the IC50, an issue brought up by Hafner et al. They reported with both modeling and in vitro assays how using the IC50 as a metric can actually mask the true mechanism of a drug, for example the microtubule inhibitor paclitaxel. […] GR values indicate whether a drug inhibits growth (0<GR<1), is cytostatic (GR=0) or cytotoxic (GR<0). To calculate this parameter, one needs cell count data for at least two different time points and compares experimental growth rates to the growth rate of control cells. […] Consequently, we reviewed the data at our two time points to perform a similar analysis. We plated at the same seeding density for both the 48 and 72 hour time points. As MTT is an endpoint assay rather than a kinetic assay like MTS, we can use MTT signal as a proxy for cell count. […] Therefore, we excluded this cell line from our analysis. We are technically assessing the effect the ADC or equivalent MMAE has on the growth rate of cells at 60 hours, as we are measuring at t=x±delta t, with x being 60 and delta t being 12 hours. Ideally, we would assess an earlier time point or even multiple time points. […] (FIGS. 19A-19D). Conversely, both NCI-H520 and NCI-H358 are cytotoxic (GR<0) at higher concentrations of ADC at this time point. […] While the GR50 data is still not in agreement with GPR87 expression, it does indicate that this type of analysis at other, earlier, time points is useful in assessing the dynamics of ADC and MMAE cytotoxicity in these cell lines.

NHLF = assay: in vitro cytotoxicity (MTT); assay type: cell-based, human
Description: as §1, §2, §3

A549 = assay: in vitro toxicity of αHER2-P3 based ADC; settings: A549, 72 h, up to 10 μg/ml ADC (equivalent to 100 ng/ml MMAE)
Description: as §6

NCI-H520 [1] = assay: preliminary toxicity study of MMAE in NSCLC line; assay type: cell-based, human
Excerpt: (§4) There are various linker chemistries for ADCs in use clinically and being investigated, as described in Chapter One. A common motif in ADCs is the valine-citrulline dipeptide which is recognized by human Cathepsin B, a lysosomal enzyme. The full motif typically used is valine-citrulline-p-aminobenzylcarbamate-monomethyl auristin E (vc-MMAE). […] The vc-MMAE structure is used in several FDA approved ADCs (brentuximab vedotin, polatuzumab vedotin, enfortumab vedotin) which target both hematologic and solid tumors.

NCI-H226 = assay: preliminary toxicity study of MMAE in NSCLC line; assay type: cell-based, human
Excerpt: as §4

NCI-H520 [2] = assay: in vitro cytotoxicity (MTT); assay type: cell-based, human; settings: NCI-H520
Description: as §1, §2
In comparison, NCI-H358 and NCI-H520 see approximately a 4-fold or 2-fold decrease in IC50, respectively, between the two time points. On the other hand, the NCI-H520 line has almost a 10-fold increase in MMAE IC50 at 72 hours compared to 48 hours. The results are likely because the cell lines are different sizes and morphologies and therefore are at different confluencies when plated at the same number of cells per well and are therefore likely to be in different parts of their log growth phase during treatment. For example, the NSCLC lines are typically at very low confluency at a plating density of 5,000 cells per well and may not reach log phase growth until later in the assay. As MMAE affects actively dividing cells, this will affect the results of the assay. While 72 hours was not the optimized end time point for all five cell lines, in order to have a standardized cell plating density, and therefore same ADC:cell ratio, going past 72 hours for some of the cell lines would lead to confluency or death in untreated control cells, which would also confound results. Thus, we incubated the two NSCLC lines for longer periods of time to allow the control cells to become more confluent by the assay endpoint, and to see how this would affect the ADC IC50.
as §3

NIH-3T3 = assay: in vitro cytotoxicity, negative control line; settings: NIH-3T3, up to 10 μg/ml ADC or equivalent concentrations, 72 hours
Description: We incubated NIH-3T3s with up to 10 μg/ml of ADC (67 nM, equivalent to 96 ng/ml of MMAE) along with the native antibody and MMAE alone at equivalent concentrations.

[3] = preliminary AFC clearance and biodistribution in PDX tumor bearing NSG mice, ELISA; assay type: in vivo; settings: 10 mg/kg
Description: We had access to a stage four mucinous lung adenocarcinoma patient derived xenograft (PDX) model. We assessed the GPR87 positivity in the tumor and found it to be positive for GPR87. (FIG. 19A) We ran a preliminary study using the AFC to determine whether the AFC would traffic to the tumor in vivo. Twenty-four hours following injection in the tail at 2.5 mg/kg, the tail, tumor, and major organs were collected and imaged with an IVIS system. […] (FIG. 19B) We moved forward with a preliminary study of the AFC in PDX tumor bearing NSG mice. Four mice were injected with 10 mg/kg of AFC once the tumor reached approximately 200-300 mm^3 and blood was drawn at 4 hours, 3 days, and 2 weeks. The mice were intended to be kept for 2 weeks, but one animal had to be euthanized at day 3 due to tumor size. At the 2-week time point, we euthanized the other animals and harvested the organs. The plasma and organ AFC levels were analyzed by a custom ELISA which detects intact AFC, as described in Chapter Four. The results are seen in FIG. 20A. […] We also ran an ELISA with an anti-mouse IgG secondary to determine the total Ab concentrations and assess whether the AFC was being cleared or was not stable (FIG. 20B). The Ab readout detected a higher concentration of Ab than AFC, however, the general trend of clearance is maintained. The concentration even by 3 days is markedly low for our AFC. Whereas we detect <1 μg/ml of AFC at 3 days by either AFC or Ab readout, levels above 10 μg/ml have been reported with similar ADC DAR ratio (˜2) and dose (10 mg/kg). However we are utilizing NSG mice to facilitate the PDX model. It has been reported that NSG mice have enhanced clearance rates of both antibodies and ADCs. However, even in comparison to the clearance rates in NSG mice noted by Li et al., AFC clearance is fast.
We also analyzed the organs at the 3 day and 2 week time point with an ELISA (FIGS. 20C-20D).

[4] = system: stage four mucinous lung adenocarcinoma patient derived xenograft (PDX); assay: preliminary in vivo trafficking of AFC, IVIS imaging of PDX tumor bearing mouse; settings: 24 hours after tail injection at 2.5 mg/kg
Description: We had access to a stage four mucinous lung adenocarcinoma patient derived xenograft (PDX) model. We assessed the GPR87 positivity in the tumor and found it to be positive for GPR87. (FIG. 19A) We ran a preliminary study using the AFC to determine whether the AFC would traffic to the tumor in vivo. Twenty-four hours following injection in the tail at 2.5 mg/kg, the tail, tumor, and major organs were collected and imaged with an IVIS system. […] (FIG. 19B) We moved forward with a preliminary study of the AFC in PDX tumor bearing NSG mice. Four mice were injected with 10 mg/kg of AFC once the tumor reached approximately 200-300 mm^3 and blood was drawn at 4 hours, 3 days, and 2 weeks. The mice were intended to be kept for 2 weeks, but one animal had to be euthanized at day 3 due to tumor size. At the 2-week time point, we euthanized the other animals and harvested the organs. The plasma and organ AFC levels were analyzed by a custom ELISA which detects intact AFC, as described in Chapter Four. The results are seen in FIG. 20A. […] The Ab readout detected a higher concentration of Ab than AFC, however, the general trend of clearance is maintained. […] Whereas we detect <1 μg/ml of AFC at 3 days by either AFC or Ab readout, levels above 10 μg/ml have been reported with similar ADC DAR ratio (˜2) and dose (10 mg/kg). […]

[5] = AFC concentration in blood plasma of Balb/c mice, ELISA; assay type: in vivo; settings: 10 mg/kg, samples at 1 hour, 7 and 14 days
Description: To make sure that the coiled-coil has no significant effect on antibody clearance, we performed a preliminary study of AFC concentration in blood plasma (FIG. 33). 10 mg/kg AFC was injected into two Balb/c mice. Blood samples were collected at 1 hour, 7 and 14 days and examined for AFC concentration by ELISA assay.

NCI-H358 = assay: internalization of AFC, confocal colocalization with EEA1 / LAMP1; assay type: cell-based, human; settings: NCI-H358, 3 or 10 μg/ml, up to 4 hours
Description: (§5) The GPR87 receptor is a G-protein coupled receptor (GPCR), a class of receptors which are activated by an extracellular ligand, initiating activation of associated intracellular G proteins for downstream signaling. Following activation, GPCRs are often internalized and recycled to prevent prolonged stimulation. […] Therefore, we wanted to confirm the uptake of our αGPR87 AFC in the two GPR87 high expressing NSCLC cell lines, NCI-H358 and NCI-H520. We cocultured the cells with 3 μg/ml of AFC for either 30 minutes or 1 hour and fixed and permeabilized the cells before immunofluorescently staining for either the early endosomal marker EEA1 or the lysosomal marker LAMP1. Shown in FIG. 11 are the images from these studies with the AFC signal, either the EEA1 or LAMP1 signal, and DAPI. The merged images are shown as well as the AFC and either EEA1 or LAMP1 signals merged, with colocalization. […] To investigate this further, we increased the concentration of AFC to 10 μg/ml and increased the incubation times to 1, 2, and 4 hours. […] By 2 hours, the AFC now is highly colocalized with the lysosomes and further colocalizes by the 4-hour timepoint while also showing less of a membranous staining pattern. From these analyses, we can determine that the AFC is indeed internalized by the human NSCLC cancer cell lines NCI-H520 and NCI-H358, albeit with different apparent kinetics.

NCI-H520 [6] = assay: as above; assay type: cell-based, human; settings: NCI-H520, 3 μg/ml, 30 minutes and 1 hour
Description: as §5

For CC[C@H](C)[C@@H]([C@@H](CC(=O)N1CCC[C@H]1[C@H](OC)[C@@H](C)C(=O)N[C@H](C)[C@@H](O)c1ccccc1)OC)N(C)C(=O)[C@@H](NC(=O)[C@@H](NC)C(C)C)C(C)C [MMAE, Monomethyl auristatin E, reference compound] (H-[NMeV]V[Dil][Dolaproine]-X1), the cell viability (SKBR-3) was 20%, the GR50 (BEAS-2B) was “cannot be calculated” and the GR50 (NHLF) was “do not reach that value”. It also gave a cell viability (A549) of 20%, an IC50 (NCI-H520 [1]) of 0.042 nM and an IC50 (NCI-H226) of 0.294 nM. The “increase in IC50 at 72 hours compared to 48 hours” value (NCI-H520 [2]) was roughly 10 fold and the cytotoxicity (NIH-3T3) was “highly toxic”.

B1: AFC (conjugate)
heavy: EVQLQQSGPDLVKPGASMKISCKASGYSFTDYTMHWVKQSHGKNFEWIGLINPYNDGTTYNQKFKGKATLTVDKSSSTAYMELLSLTSEDSAVYYCASLDYWGQGTSVTVSSAKTTPPSVYPLAPGSAAQTNSMVTLGCLVKGYFPEPVTVTWNSGSLSSGVHTFPAVLQSDLYTLSSSVTVPSSTWPSETVTCNVAHPASSTKVDKKIVPRDCGCKPCICTVPEVSSVFIFPPKPKDVLTITLTPKVTCVVVDISKDDPEVQFSWFVDDVEVHTAQTQPREEQFNSTFRSVSELPIMHQDWLNGKEFKCRVNSAAFPAPIEKTISKTKGRPKAPQVYTIPPPKEQMAKDKVSLTCMITDFFPEDITVEWQWNGQPAENYKNTQPIMDTDGSYFVYSKLNVQKSNWEAGNTFTCSVLHEGLHNHHTEKSLSHSPGKGGGGGMKLKKIKSVLKKIKSVLKKIKSVLKKIKSVVGER
light: DVVMTQTPLSLPVSLGDQASISCRSSQSLVHSSGNTYLHWYLQKPGQSPKLLIYKVSNRFSGVPDRFSGSGSGTDFTLKISRVEAEDLGVYFCSQSTHVPYTFGGGTKLEIKRADAAPTVSIFPPSSEQLTSGGASVVCFLNNFYPKDINVKWKIDGSERQNGVLNSWTDQDSKDSTYSMSSTLTLTKDEYERHNSYTCEATHKTSTSPIVKSFNRNEC
peptide: MKLEEIVSELEEIVSELEEIVKELEEIVYEVGER
For B1, the “plasma concentration at 3 days” value ([3]; by either AFC or Ab readout) was less than 1 µg/mL, the “concentration in tumor and organs” value ([3]; compared to liver, kidney, spleen, heart and lung, preliminary) was “highest in the tumor at 3 days and at 2 weeks” and the clearance ([3]; plasma at 4 hours, 3 days, 2 weeks) was “rapidly cleared”. The “fluorescence of tail, tumor and major organs” value [4] was “tail (injection site) and tumor both showed high fluorescence, with little fluorescence in the major organs”, the “AFC concentration in plasma” value [5] was “A small amount of AFC was detected in plasma after 7 days” and the internalization (NCI-H358) was “internalized”. For the same molecule, the internalization (NCI-H520 [6]) was “internalized”.
